According to ChEMBL document CHEMBL5303573, “Mapping human microbiome drug metabolism by gut bacteria and their genes” (Nature, 2019):

Tests used:
[1] = The drug is tested on Bifidobacterium breve strain: DSM20213 for biotransformation. The drug concentrations were measured before and after a 12-h incubation by liquid-chromatography-coupled mass spectrometry (LC–MS); settings: 2 µM
[2] = The drug is tested on Collinsella aerofaciens strain: ATCC25986 for biotransformation. The drug concentrations were measured before and after a 12-h incubation by liquid-chromatography-coupled mass spectrometry (LC–MS); settings: 2 µM
[3] = The drug is tested on Collinsella intestinalis strain: DSM13280 for biotransformation. The drug concentrations were measured before and after a 12-h incubation by liquid-chromatography-coupled mass spectrometry (LC–MS); settings: 2 µM
[4] = The drug is tested on Alistipes indistinctus strain: DSM22520 for biotransformation. The drug concentrations were measured before and after a 12-h incubation by liquid-chromatography-coupled mass spectrometry (LC–MS); settings: 2 µM
[5] = The drug is tested on Bacteroides caccae strain: ATCC43185 for biotransformation. The drug concentrations were measured before and after a 12-h incubation by liquid-chromatography-coupled mass spectrometry (LC–MS); settings: 2 µM
[6] = The drug is tested on Bacteroides cellulosilyticus strain: DSM14838 for biotransformation. The drug concentrations were measured before and after a 12-h incubation by liquid-chromatography-coupled mass spectrometry (LC–MS); settings: 2 µM
[7] = The drug is tested on Bacteroides finegoldii strain: DSM17565 for biotransformation. The drug concentrations were measured before and after a 12-h incubation by liquid-chromatography-coupled mass spectrometry (LC–MS); settings: 2 µM
[8] = The drug is tested on Bacteroides fragilis strain: HMW610 for biotransformation. The drug concentrations were measured before and after a 12-h incubation by liquid-chromatography-coupled mass spectrometry (LC–MS); settings: 2 µM
[9] = The drug is tested on Bacteroides fragilis strain: ATCC43859 for biotransformation. The drug concentrations were measured before and after a 12-h incubation by liquid-chromatography-coupled mass spectrometry (LC–MS); settings: 2 µM
[10] = The drug is tested on Bacteroides ovatus strain: ATCC8483 for biotransformation. The drug concentrations were measured before and after a 12-h incubation by liquid-chromatography-coupled mass spectrometry (LC–MS); settings: 2 µM
[11] = The drug is tested on Bacteroides pectinophilus strain: ATCC43243 for biotransformation. The drug concentrations were measured before and after a 12-h incubation by liquid-chromatography-coupled mass spectrometry (LC–MS); settings: 2 µM
[12] = The drug is tested on Bacteroides sp. WH2 strain: WH2 for biotransformation. The drug concentrations were measured before and after a 12-h incubation by liquid-chromatography-coupled mass spectrometry (LC–MS); settings: bacteroides sp. wh2, 12 h, 2 µM
[13] = The drug is tested on Bacteroides xylanisolvens strain: DSM18836 for biotransformation. The drug concentrations were measured before and after a 12-h incubation by liquid-chromatography-coupled mass spectrometry (LC–MS); settings: 2 µM
[14] = The drug is tested on Parabacteroides merdae strain: ATCC43184 for biotransformation. The drug concentrations were measured before and after a 12-h incubation by liquid-chromatography-coupled mass spectrometry (LC–MS); settings: 2 µM
[15] = The drug is tested on Anaerococcus hydrogenalis strain: DSM7454 for biotransformation. The drug concentrations were measured before and after a 12-h incubation by liquid-chromatography-coupled mass spectrometry (LC–MS); settings: 2 µM
[16] = The drug is tested on Blautia luti strain: DSM14534 for biotransformation. The drug concentrations were measured before and after a 12-h incubation by liquid-chromatography-coupled mass spectrometry (LC–MS); format: ADME; set-up: dose 2 uM, timepoint 0 vs 12 hours; settings: 2 µM
[17] = The drug is tested on Clostridium asparagiforme strain: DSM15981 for biotransformation. The drug concentrations were measured before and after a 12-h incubation by liquid-chromatography-coupled mass spectrometry (LC–MS); format: ADME; set-up: dose 2 uM, timepoint 0 vs 12 hours; settings: enterocloster asparagiformis, 2 µM
[18] = The drug is tested on Clostridium scindens strain: ATCC35704 for biotransformation. The drug concentrations were measured before and after a 12-h incubation by liquid-chromatography-coupled mass spectrometry (LC–MS); settings: 2 µM
[19] = The drug is tested on Clostridium sporogenes strain: ATCC15579 for biotransformation. The drug concentrations were measured before and after a 12-h incubation by liquid-chromatography-coupled mass spectrometry (LC–MS); settings: 2 µM
[20] = The drug is tested on Clostridium symbiosum strain: ATCC14940 for biotransformation. The drug concentrations were measured before and after a 12-h incubation by liquid-chromatography-coupled mass spectrometry (LC–MS); settings: 2 µM
[21] = The drug is tested on Dorea formicigenerans strain: ATCC27755 for biotransformation. The drug concentrations were measured before and after a 12-h incubation by liquid-chromatography-coupled mass spectrometry (LC–MS); settings: 2 µM
[22] = The drug is tested on Enterococcus faecalis strain: V583 for biotransformation. The drug concentrations were measured before and after a 12-h incubation by liquid-chromatography-coupled mass spectrometry (LC–MS); settings: 2 µM
[23] = The drug is tested on Eubacterium rectale strain: ATCC33656 for biotransformation. The drug concentrations were measured before and after a 12-h incubation by liquid-chromatography-coupled mass spectrometry (LC–MS); settings: agathobacter rectalis, 2 µM
[24] = The drug is tested on Eubacterium ventriosum strain: ATCC27560 for biotransformation. The drug concentrations were measured before and after a 12-h incubation by liquid-chromatography-coupled mass spectrometry (LC–MS); format: ADME; set-up: dose 2 uM, timepoint 0 vs 12 hours; settings: 2 µM
[25] = The drug is tested on Ruminococcus gnavus strain: ATCC29149 for biotransformation. The drug concentrations were measured before and after a 12-h incubation by liquid-chromatography-coupled mass spectrometry (LC–MS); settings: mediterraneibacter gnavus, 2 µM
[26] = The drug is tested on Ruminococcus lactaris strain: ATCC29176 for biotransformation. The drug concentrations were measured before and after a 12-h incubation by liquid-chromatography-coupled mass spectrometry (LC–MS); settings: 2 µM
[27] = The drug is tested on Ruminococcus torques strain: ATCC27756 for biotransformation. The drug concentrations were measured before and after a 12-h incubation by liquid-chromatography-coupled mass spectrometry (LC–MS); format: ADME; set-up: dose 2 uM, timepoint 0 vs 12 hours; settings: 2 µM
[28] = The drug is tested on Subdoligranulum variabile strain: DSM15176 for biotransformation. The drug concentrations were measured before and after a 12-h incubation by liquid-chromatography-coupled mass spectrometry (LC–MS); settings: 2 µM
[29] = The drug is tested on Edwardsiella tarda strain: ATCC23685 for biotransformation. The drug concentrations were measured before and after a 12-h incubation by liquid-chromatography-coupled mass spectrometry (LC–MS); settings: 2 µM
[30] = The drug is tested on Escherichia coli strain: BW25113 for biotransformation. The drug concentrations were measured before and after a 12-h incubation by liquid-chromatography-coupled mass spectrometry (LC–MS); settings: 2 µM
[31] = The drug is tested on Providencia rettgeri strain: DSM1131 for biotransformation. The drug concentrations were measured before and after a 12-h incubation by liquid-chromatography-coupled mass spectrometry (LC–MS); format: ADME; set-up: dose 2 uM, timepoint 0 vs 12 hours; settings: 2 µM
[32] = bacteroides fragilis, 12 h, 2 µM
Description: The drug is tested on Bacteroides fragilis strain: NCTC 9343 for biotransformation. The drug concentrations were measured before and after a 12-h incubation by liquid-chromatography-coupled mass spectrometry (LC–MS)

[33] = bacteroides intestinalis, 12 h, 2 µM
Description: The drug is tested on Bacteroides intestinalis strain: DSM17393 for biotransformation. The drug concentrations were measured before and after a 12-h incubation by liquid-chromatography-coupled mass spectrometry (LC–MS)

[34] = bacteroides thetaiotaomicron, 12 h, 2 µM
Description: The drug is tested on Bacteroides thetaiotaomicron strain: VPI-5482 for biotransformation. The drug concentrations were measured before and after a 12-h incubation by liquid-chromatography-coupled mass spectrometry (LC–MS)

[35] = parabacteroides distasonis, 12 h, 2 µM
Description: The drug is tested on Parabacteroides distasonis strain: ATCC8503 for biotransformation. The drug concentrations were measured before and after a 12-h incubation by liquid-chromatography-coupled mass spectrometry (LC–MS)

[36] = parabacteroides johnsonii, 12 h, 2 µM
Description: The drug is tested on Parabacteroides johnsonii strain: DSM18315 for biotransformation. The drug concentrations were measured before and after a 12-h incubation by liquid-chromatography-coupled mass spectrometry (LC–MS)

[37] = segatella copri, 12 h, 2 µM
Description: The drug is tested on Prevotella copri strain: DSM18205 for biotransformation. The drug concentrations were measured before and after a 12-h incubation by liquid-chromatography-coupled mass spectrometry (LC–MS)

[38] = anaerostipes sp., 12 h, 2 µM
Description: The drug is tested on Anaerostipes sp. strain: fecal isolate for biotransformation. The drug concentrations were measured before and after a 12-h incubation by liquid-chromatography-coupled mass spectrometry (LC–MS)

[39] = enterocloster bolteae, 12 h, 2 µM
Description: The drug is tested on Clostridium bolteae strain: ATCCBAA-613 for biotransformation. The drug concentrations were measured before and after a 12-h incubation by liquid-chromatography-coupled mass spectrometry (LC–MS)

[40] = roseburia intestinalis, 12 h, 2 µM
Description: The drug is tested on Roseburia intestinalis strain: L1-82 for biotransformation. The drug concentrations were measured before and after a 12-h incubation by liquid-chromatography-coupled mass spectrometry (LC–MS)

Q: Which “Bacterial Biotransformation” value [1] does the source give for `Cc1ccc(-c2cc(C(F)(F)F)nn2-c2ccc(S(N)(=O)=O)cc2)cc1` [CELECOXIB] here?
A: Its value is “Compound NOT metabolized”.

Q: And the “Bacterial Biotransformation” value [2]?
A: Its value is “Compound NOT metabolized”.

Q: And the “Bacterial Biotransformation” value [3]?
A: Its value is “Compound NOT metabolized”.

Q: What about the “Bacterial Biotransformation” value [4] of the same molecule?
A: The value was “Compound NOT metabolized”.

Q: And the “Bacterial Biotransformation” value [5]?
A: The value was “Compound NOT metabolized”.

Q: And the “Bacterial Biotransformation” value [6]?
A: Its value is “Compound NOT metabolized”.

Q: What about the “Bacterial Biotransformation” value [7] of the same molecule?
A: The value was “Compound NOT metabolized”.

Q: And the “Bacterial Biotransformation” value [8]?
A: Its value is “Compound NOT metabolized”.

Q: And the “Bacterial Biotransformation” value [9]?
A: The value was “Compound NOT metabolized”.

Q: What about the “Bacterial Biotransformation” value [10] of the same molecule?
A: The value was “Compound NOT metabolized”.

Q: And the “Bacterial Biotransformation” value [11]?
A: Its value is “Compound NOT metabolized”.

Q: What about the “Bacterial Biotransformation” value [12] of the same molecule?
A: Its value is “Compound NOT metabolized”.

Q: And the “Bacterial Biotransformation” value [13]?
A: Its value is “Compound NOT metabolized”.

Q: And the “Bacterial Biotransformation” value [14]?
A: Its value is “Compound NOT metabolized”.

Q: And the “Bacterial Biotransformation” value [15]?
A: The value was “Compound NOT metabolized”.

Q: What about the “Bacterial Biotransformation” value [16] of the same molecule?
A: The value was “Compound NOT metabolized”.

Q: And the “Bacterial Biotransformation” value [17]?
A: Its value is “Compound NOT metabolized”.

Q: What about the “Bacterial Biotransformation” value [18] of the same molecule?
A: Its value is “Compound NOT metabolized”.

Q: And the “Bacterial Biotransformation” value [19]?
A: Its value is “Compound metabolized”.

Q: What about the “Bacterial Biotransformation” value [20] of the same molecule?
A: Its value is “Compound NOT metabolized”.

Q: And the “Bacterial Biotransformation” value [21]?
A: Its value is “Compound NOT metabolized”.

Q: And the “Bacterial Biotransformation” value [22]?
A: Its value is “Compound NOT metabolized”.

Q: And the “Bacterial Biotransformation” value [23]?
A: The value was “Compound NOT metabolized”.

Q: What about the “Bacterial Biotransformation” value [24] of the same molecule?
A: Its value is “Compound NOT metabolized”.

Q: And the “Bacterial Biotransformation” value [25]?
A: Its value is “Compound NOT metabolized”.

Q: What about the “Bacterial Biotransformation” value [26] of the same molecule?
A: Its value is “Compound NOT metabolized”.

Q: What about the “Bacterial Biotransformation” value [27] of the same molecule?
A: Its value is “Compound NOT metabolized”.

Q: And the “Bacterial Biotransformation” value [28]?
A: The value was “Compound NOT metabolized”.

Q: And the “Bacterial Biotransformation” value [29]?
A: The value was “Compound NOT metabolized”.

Q: And the “Bacterial Biotransformation” value [30]?
A: Its value is “Compound NOT metabolized”.

Q: And the “Bacterial Biotransformation” value [31]?
A: The value was “Compound NOT metabolized”.

Q: And the “Bacterial Biotransformation” value [32]?
A: Its value is “Compound NOT metabolized”.

Q: And the “Bacterial Biotransformation” value [33]?
A: The value was “Compound NOT metabolized”.

Q: And the “Bacterial Biotransformation” value [34]?
A: The value was “Compound NOT metabolized”.

Q: What about the “Bacterial Biotransformation” value [35] of the same molecule?
A: Its value is “Compound NOT metabolized”.

Q: And the “Bacterial Biotransformation” value [36]?
A: Its value is “Compound NOT metabolized”.

Q: And the “Bacterial Biotransformation” value [37]?
A: The value was “Compound metabolized”.

Q: And the “Bacterial Biotransformation” value [38]?
A: The value was “Compound NOT metabolized”.

Q: What about the “Bacterial Biotransformation” value [39] of the same molecule?
A: Its value is “Compound NOT metabolized”.

Q: And the “Bacterial Biotransformation” value [40]?
A: The value was “Compound NOT metabolized”.
